Source: US11338040B2, “Immunomodulatory compounds” (Leidos, Inc., priority 2020, dated 2022)
Entries after “also recorded” stand apart in the source; their conditions may differ. Non-standard residues stand in square brackets, D forms with d. Residues, ends and D or L forms follow the SMILES beside them. Primed or numbered codes have the meaning given here. No end group written: not given here. PEG4′ = PEG linker of 4 PEG units; PEG4 = NCCOCCOCCOCCOCCC(=O)O

Experiments:
[1] = target: T1, interaction between LAG3 and MHC-II (Homo sapiens, UniProt P18627); test: HTRF (TR-FRET) LAG3/MHC-II binding assay; settings: for response in dilution curve (HTRF signal): 10-fold dilutions starting at 100 μM or 10 μM, FIGS. 2A-9B; for IC50: LAG3:MHCII TR-FRET full dilution curves; for effect on HTRF signal: tested at 100 μM, 10 μM, and 1 μM, FIG. 1
T1 construct: purchased Cisbio US Inc
T1 sequence (P18627 23-450 limits assumed): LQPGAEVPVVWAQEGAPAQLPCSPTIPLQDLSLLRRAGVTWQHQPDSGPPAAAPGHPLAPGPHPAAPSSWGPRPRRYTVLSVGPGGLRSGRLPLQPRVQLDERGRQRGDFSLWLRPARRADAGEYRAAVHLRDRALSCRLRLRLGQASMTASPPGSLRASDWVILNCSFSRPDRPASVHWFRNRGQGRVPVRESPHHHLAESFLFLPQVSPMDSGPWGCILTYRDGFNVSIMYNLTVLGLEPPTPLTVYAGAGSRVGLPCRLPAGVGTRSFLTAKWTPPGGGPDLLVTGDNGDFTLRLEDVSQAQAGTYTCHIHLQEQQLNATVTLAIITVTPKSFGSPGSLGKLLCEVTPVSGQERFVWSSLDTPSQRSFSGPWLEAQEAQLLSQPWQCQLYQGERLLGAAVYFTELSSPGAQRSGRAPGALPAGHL
Excerpt: A Homogeneous Time-resolved Fluorescence (HTRF) LAG3/MHC-II binding assay (Cisbio US Inc.) was used to measure the interaction between MHC-II and LAG3 in the presence of various peptides and peptide conjugates. In this assay, the interaction between Tag1-LAG3 and Tag2-MHC-II is detected by using anti-Tag1-Terbium (HTRF donor) and anti-Tag2-XL665 (HTRF acceptor). When the donor and acceptor antibodies are brought into close proximity due to LAG3 and MHC-II binding, excitation of the donor antibody triggers fluorescent resonance energy transfer (FRET) towards the acceptor antibody, which in turn emits specifically at 665 nm. This specific signal is directly proportional to the extent of LAG3/MHC-II interaction. Thus, an agent that blocks the interaction between LAG3 and MHC-II will cause a reduction in HTRF ratio.
Each of peptide conjugates BT1, BT2, BT3, BT4, BT5, BT6, BT7, BT8, BT9, and peptides LG11 (LAG3-11), LAG3-56 (SEQ ID NO:5), and LAG3-42 (SEQ ID NO:6) was tested at 3 concentrations: 100 μM, 10 μM, and 1 μM. The dashed-lines represent the HTRF ratio readout of a control ovalbumin peptide (OVA, SEQ ID NO:7) (baseline) at the respective concentrations.
peptide conjugates and LG peptides were tested in full dilution curves in the LAG3:MHCII TR-FRET Assay described above to estimate IC50. peptide conjugates were tested starting at 100 μM or 10 μM. LG peptides were tested starting at 100 μM.

PD1 = target: T2, PD1 (Homo sapiens, UniProt Q15116); test: PD1/PDL1 cell reporter assay (PathHunter, Jurkat PD1/SHP1 EFC cells co-incubated with PDL1-presenting U2OS cells); type: cell-based; settings: FIG. 10
T2 construct: expressed in transfected cells; host or cells: Jurkat cells (PD1-EFC and SHP1-EFC) co-cultured with PDL1-presenting U2OS cells
T2 sequence (Q15116 25-288): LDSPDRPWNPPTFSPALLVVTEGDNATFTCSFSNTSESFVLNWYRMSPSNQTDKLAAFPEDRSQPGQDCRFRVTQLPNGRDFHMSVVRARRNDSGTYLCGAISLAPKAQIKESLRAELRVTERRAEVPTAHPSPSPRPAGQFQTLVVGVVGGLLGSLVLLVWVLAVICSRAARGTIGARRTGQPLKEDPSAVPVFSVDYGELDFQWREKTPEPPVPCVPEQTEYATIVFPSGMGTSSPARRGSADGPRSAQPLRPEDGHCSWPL
Method: Jurkat cells expressing PD1 and SHP1 proteins, each fused to a fragment of enzyme fragment complementation (EFC) system, were co-incubated with PDL1-presenting U2OS cells. […] Cells in co-culture were incubated at room temperature (RT) for 2 h (PD1 assay). The assay signal was generated using the PathHunter Bioassay Detection kit. Microplates were read following signal generation using a PerkinElmer ENVISION™ instrument for chemiluminescent signal detection. Inhibitory peptides or antibodies added to the culture result in reduction of light signal. The degree of inhibition was calculated using the following formula: Percent inhibition=100%×[1−(mean RLU of test sample−mean RLU of vehicle control)/mean RLU of EC80 control−mean RLU of vehicle control)].
Peptide conjugates BT1-BT11 were tested at three concentrations: 3.6 μM, 10.8 μM, 32.5 μM in triplicate wells. peptide conjugates were dissolved in DMSO and serially diluted in assay buffer. The highest concentration that can be tested in this assay was 32.5 μM peptide conjugate (1% DMSO).
Peptides LD12 (SEQ ID NO:9), LD10 (SEQ ID NO:1), and LD16 (SEQ ID NO:10) were tested at three concentrations: 11 μM, 33 μM, 100 μM in triplicate. LD peptides were dissolved in water and serially diluted in assay buffer. RLUs were measured at the end of the assay, and % Inhibition (% Efficiency) was calculated using the formula above.

[2] = peptide conjugates at 3.6 μM, 10.8 μM, 32.5 μM in triplicate
[3] = LD peptides at 11 μM, 33 μM, 100 μM in triplicate

Row | Compound | response in dilution curve (HTRF signal) [1] | inhibition of PD1 activity (percent inhibition of light signal) (PD1; [2]) | effect on HTRF signal [1] | other results
1 | H2N-WEGTGQWWDEPWHLPEWPAS^4-PEG4-(dS)TGQISTLRVNITAPLSQ^1-amide [BT3] | agonistic activity at 100 μM and 10 μM | did not show inhibition at any of the tested concentrations | – | –
2 | STGQISTLRVNITAPLSQ (LD10 peptide, forward orientation) [positive control peptide] | – | – | – | inhibition of PD1 activity (percent inhibition of light signal) (PD1; [3]): Good dose-responses
3 | CC[C@H](C)[C@H](NC(=O)[C@H](CO)NC(=O)[C@@H](NC(=O)[C@H](CC(C)C)NC(=O)[C@H](CCCNC(=N)N)NC(=O)[C@@H](NC(=O)[C@H](CC(N)=O)NC(=O)[C@@H](NC(=O)[C@@H](NC(=O)[C@H](C)NC(=O)[C@@H]1CCCN1C(=O)[C@H](CC(C)C)NC(=O)[C@H](CO)NC(=O)[C@H](CCC(N)=O)NC(C)=O)[C@@H](C)O)[C@@H](C)CC)C(C)C)[C@@H](C)O)C(=O)N[C@@H](CCC(N)=O)C(=O)NCC(=O)N[C@H](C(=O)N[C@H](CO)C(=O)NCCOCCOCCOCCOCCC(=O)N[C@@H](Cc1c[nH]c2ccccc12)C(=O)N[C@@H](CCC(=O)O)C(=O)NCC(=O)N[C@H](C(=O)NCC(=O)N[C@@H](CCC(N)=O)C(=O)N[C@@H](Cc1c[nH]c2ccccc12)C(=O)N[C@@H](Cc1c[nH]c2ccccc12)C(=O)N[C@@H](CC(=O)O)C(=O)N[C@@H](CCC(=O)O)C(=O)N1CCC[C@H]1C(=O)N[C@@H](Cc1c[nH]c2ccccc12)C(=O)N[C@@H](Cc1c[nH]cn1)C(=O)N[C@@H](CC(C)C)C(=O)N1CCC[C@H]1C(=O)N[C@@H](CCC(=O)O)C(=O)N[C@@H](Cc1c[nH]c2ccccc12)C(=O)N1CCC[C@H]1C(=O)N[C@@H](C)C(=O)N[C@@H](CO)C(N)=O)[C@@H](C)O)[C@@H](C)O [BT6] (Ac-QSLPATINVRLTSIQGT[dS][PEG4]WEGTGQWWDEPWHLPEWPAS-NH2) | reduced the HTRF signal | did not show inhibition at any of the tested concentrations | reduced the HTRF signal | IC50 [1]: 146 nM
4 | LD12: negative control peptide LD12 (SEQ ID NO:9) (CRRTSTGQISTARVNITAPLSQ; LD12 peptide) [reference compound] | – | – | – | inhibition of PD1 activity (percent inhibition of light signal) (PD1; [3]): did not show inhibition
5 | Ac-QSLPATINVRLTSIQGT(dS)^2-PEG4-QSLPATINVRLTSIQGT(dS)^2-amide (peptide 1 Ac-QSLPATINVRLTSIQGT[dS][PEG4′]; peptide 2 QSLPATINVRLTSIQGT[dS]-NH2; also: chain 1 C-terminus joined to chain 2 N-terminus via PEG4) [BT11, peptide conjugate of two LD10 peptides (reverse, reverse) separated by a PEG4 linker] | activity at 100 μM | reduced the activity of PD1 at one or two of the tested concentrations | – | response in dilution curve (HTRF signal) ([1]; listed as B11): no or activity only at 100 μM
6 | LD16: positive control peptide LD16 (SEQ ID NO:10) (TSTGQISTLRVNITAPLSQ; LD16 peptide) [reference compound] | – | – | – | inhibition of PD1 activity (percent inhibition of light signal) (PD1; [3]): Good dose-responses
7 | H2N-(dS)TGQISTLRVNITAPLSQ^1-PEG4-QSLPATINVRLTSIQGT(dS)^2-amide [BT10] | activity at 100 μM | reduced the activity of PD1 at one or two of the tested concentrations | – | response in dilution curve (HTRF signal) ([1]; listed as B10): no or activity only at 100 μM
8 | LG42: peptide LG42 (LAG3-42; SEQ ID NO:6) (DWNFQQWDWKKHNHLDSHVV; LAG3-42 peptide) [reference compound] | no response | – | – | –
9 | H2N-(dS)TGQISTLRVNITAPLSQ^1-PEG4-WEGTGQWWDEPWHLPEWPAS^4-amide [BT8] | agonistic activity at 100 μM | did not show inhibition at any of the tested concentrations | two concentrations of BT8 reduced the HTRF signal | –
10 | LD10da: peptide LD10da (SEQ ID NO:8) (STGQISTLRVNITAPLSQ; LD10da peptide) [reference compound] | no response | – | – | –
11 | H2N-(dS)TGQISTLRVNITAPLSQ^1-PEG4-(dS)TGQISTLRVNITAPLSQ^1-amide (peptide 1 H-[dS]TGQISTLRVNITAPLSQ[PEG4′]; peptide 2 [dS]TGQISTLRVNITAPLSQ-NH2; also: chain 1 C-terminus joined to chain 2 N-terminus via PEG4) [BT9, peptide conjugate of two LD10 peptides (forward, forward) separated by a PEG4 linker] | no real effect; also recorded: no or activity only at 100 μM | reduced the activity of PD1 at one or two of the tested concentrations | behaved in this assay like a LAG3 agonist | –
12 | CC[C@H](C)[C@H](NC(=O)[C@H](CO)NC(=O)[C@@H](NC(=O)[C@H](CC(C)C)NC(=O)[C@H](CCCNC(=N)N)NC(=O)[C@@H](NC(=O)[C@H](CC(N)=O)NC(=O)[C@@H](NC(=O)[C@@H](NC(=O)[C@H](C)NC(=O)[C@@H]1CCCN1C(=O)[C@H](CC(C)C)NC(=O)[C@H](CO)NC(=O)[C@H](CCC(N)=O)NC(C)=O)[C@@H](C)O)[C@@H](C)CC)C(C)C)[C@@H](C)O)C(=O)N[C@@H](CCC(N)=O)C(=O)NCC(=O)N[C@H](C(=O)N[C@H](CO)C(=O)NCCOCCOCCOCCOCCC(=O)N[C@@H](CO)C(=O)N[C@@H](C)C(=O)N1CCC[C@H]1C(=O)N[C@@H](Cc1c[nH]c2ccccc12)C(=O)N[C@@H](CCC(=O)O)C(=O)N1CCC[C@H]1C(=O)N[C@@H](CC(C)C)C(=O)N[C@@H](Cc1c[nH]cn1)C(=O)N[C@@H](Cc1c[nH]c2ccccc12)C(=O)N1CCC[C@H]1C(=O)N[C@@H](CCC(=O)O)C(=O)N[C@@H](CC(=O)O)C(=O)N[C@@H](Cc1c[nH]c2ccccc12)C(=O)N[C@@H](Cc1c[nH]c2ccccc12)C(=O)N[C@@H](CCC(N)=O)C(=O)NCC(=O)N[C@H](C(=O)NCC(=O)N[C@@H](CCC(=O)O)C(=O)N[C@@H](Cc1c[nH]c2ccccc12)C(N)=O)[C@@H](C)O)[C@@H](C)O [BT7] (Ac-QSLPATINVRLTSIQGT[dS][PEG4]SAPWEPLHWPEDWWQGTGEW-NH2) | reduced the HTRF signal | reduced the activity of PD1 at one or two of the tested concentrations | reduced the HTRF signal | IC50 [1]: ~12.8 nM
